Source: PubChem BioAssay AID1963437 (Molecular Pharmacology Branch, DTP, NCI, 2024)
pIC50: −log10 of the molar value.

Test system: OVCAR-8 complex spheroid, growth inhibition
Experiment: Anticancer human tumor OVCAR-8 cell line growth inhibition [Asc];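 further: spheroids exposed to agents for 7 days before readout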;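 on viability, T/C: percent viability relative to DMSO vehicle wells taken as 100%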
Conditions: for pIC50: curve of first compound; for viability, T/C: stronger effect = lower value; active means viability on the fitted dose curve at most 10% of control; inactive means the rest
How it was run: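 Tumor cells were grown as complex spheroids with human endothelial cells (HUVEC) and human mesenchymal stem cells as stroma. Agents were tested alone and in combination, in half-log steps down from the clinical Cmax, or from 10 microM where Cmax was unknown.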

C=C(F)C(=O)N1CCN(c2nc(OCC3CCCN3C)nc3c2CCN(c2cccc4cccc(Cl)c24)C3)CC1CC#N (centres undefined) + Cc1c(S(C)(=O)=O)c(-c2cc(F)cc(N3CCN(c4ccc(NS(=O)(=O)c5ccc(NC(CCN6CCC(C(=O)OCCCP(=O)(O)O)CC6)CSc6ccccc6)c(S(=O)(=O)C(F)(F)F)c5)cc4)CC3)c2)c(-c2ccc(Cl)cc2)n1C(C)C
5.67: pIC50 (second compound 10 µM)
5.65: pIC50 (second compound 0.1 µM) | pIC50 (second compound 3.16 µM)
5.60: pIC50 (second compound 1 µM)
5.63: pIC50 (second compound 0.0316 µM) | pIC50 (second compound 0.316 µM)
inactive: viability, T/C (second compound 0.0316 µM, first compound 0.0316 µM) 102% | viability, T/C (second compound 0.0316 µM, first compound 0.1 µM) 92.4% | viability, T/C (second compound 0.0316 µM, first compound 0.316 µM) 91.8% | viability, T/C (second compound 0.0316 µM, first compound 1 µM) 102% | viability, T/C (second compound 0.0316 µM, first compound 3.16 µM) 33% | viability, T/C (second compound 0.1 µM, first compound 0.0316 µM) 95.6% | viability, T/C (second compound 0.1 µM, first compound 0.1 µM) 94.3% | viability, T/C (second compound 0.1 µM, first compound 0.316 µM) 97.7% | viability, T/C (second compound 0.1 µM, first compound 1 µM) 111% | viability, T/C (second compound 0.1 µM, first compound 3.16 µM) 28.5% | viability, T/C (second compound 0.316 µM, first compound 0.0316 µM) 90.3% | viability, T/C (second compound 0.316 µM, first compound 0.1 µM) 99.5% | viability, T/C (second compound 0.316 µM, first compound 0.316 µM) 98.7% | viability, T/C (second compound 0.316 µM, first compound 1 µM) 113% | viability, T/C (second compound 0.316 µM, first compound 3.16 µM) 31.5% | viability, T/C (second compound 1 µM, first compound 0.0316 µM) 92.1% | viability, T/C (second compound 1 µM, first compound 0.1 µM) 88.2% | viability, T/C (second compound 1 µM, first compound 0.316 µM) 96% | viability, T/C (second compound 1 µM, first compound 1 µM) 114% | viability, T/C (second compound 1 µM, first compound 3.16 µM) 38.1% | viability, T/C (second compound 3.16 µM, first compound 0.0316 µM) 102% | viability, T/C (second compound 3.16 µM, first compound 0.1 µM) 111% | viability, T/C (second compound 3.16 µM, first compound 0.316 µM) 93.2% | viability, T/C (second compound 3.16 µM, first compound 1 µM) 128% | viability, T/C (second compound 3.16 µM, first compound 3.16 µM) 25.5% | viability, T/C (second compound 10 µM, first compound 0.0316 µM) 96.4% | viability, T/C (second compound 10 µM, first compound 0.1 µM) 73.3% | viability, T/C (second compound 10 µM, first compound 0.316 µM) 92.4% | viability, T/C (second compound 10 µM, first compound 1 µM) 121% | viability, T/C (second compound 10 µM, first compound 3.16 µM) 26.9%
active: viability, T/C (second compound 0.0316 µM, first compound 10 µM) 2.02% | viability, T/C (second compound 0.1 µM, first compound 10 µM) 0.39% | viability, T/C (second compound 0.316 µM, first compound 10 µM) 0.28% | viability, T/C (second compound 1 µM, first compound 10 µM) 1.17% | viability, T/C (second compound 3.16 µM, first compound 10 µM) 0.35% | viability, T/C (second compound 10 µM, first compound 10 µM) 1.06%

CCN1C(C(=O)NC23CCC(C(=O)O)(CC2)CC3)C(c2cccc(Cl)c2F)C2(C(=O)Nc3cc(Cl)ccc32)C12CCCCC2 (centres undefined) + Cc1c(S(C)(=O)=O)c(-c2cc(F)cc(N3CCN(c4ccc(NS(=O)(=O)c5ccc(NC(CCN6CCC(C(=O)OCCCP(=O)(O)O)CC6)CSc6ccccc6)c(S(=O)(=O)C(F)(F)F)c5)cc4)CC3)c2)c(-c2ccc(Cl)cc2)n1C(C)C
< 5.52: pIC50 (second compound 0.0316 µM) | pIC50 (second compound 0.1 µM) | pIC50 (second compound 0.316 µM) | pIC50 (second compound 1 µM) | pIC50 (second compound 3.16 µM) | pIC50 (second compound 10 µM)
inactive: viability, T/C (second compound 0.0316 µM, first compound 0.00949 µM) 92.4% | viability, T/C (second compound 0.0316 µM, first compound 0.03 µM) 99.1% | viability, T/C (second compound 0.0316 µM, first compound 0.0949 µM) 99.5% | viability, T/C (second compound 0.0316 µM, first compound 0.3 µM) 90% | viability, T/C (second compound 0.0316 µM, first compound 0.949 µM) 107% | viability, T/C (second compound 0.0316 µM, first compound 3 µM) 109% | viability, T/C (second compound 0.1 µM, first compound 0.00949 µM) 90.1% | viability, T/C (second compound 0.1 µM, first compound 0.03 µM) 95.8% | viability, T/C (second compound 0.1 µM, first compound 0.0949 µM) 94.8% | viability, T/C (second compound 0.1 µM, first compound 0.3 µM) 89.8% | viability, T/C (second compound 0.1 µM, first compound 0.949 µM) 101% | viability, T/C (second compound 0.1 µM, first compound 3 µM) 105% | viability, T/C (second compound 0.316 µM, first compound 0.00949 µM) 108% | viability, T/C (second compound 0.316 µM, first compound 0.03 µM) 99.9% | viability, T/C (second compound 0.316 µM, first compound 0.0949 µM) 94.8% | viability, T/C (second compound 0.316 µM, first compound 0.3 µM) 105% | viability, T/C (second compound 0.316 µM, first compound 0.949 µM) 102% | viability, T/C (second compound 0.316 µM, first compound 3 µM) 125% | viability, T/C (second compound 1 µM, first compound 0.00949 µM) 109% | viability, T/C (second compound 1 µM, first compound 0.03 µM) 93.1% | viability, T/C (second compound 1 µM, first compound 0.0949 µM) 93.5% | viability, T/C (second compound 1 µM, first compound 0.3 µM) 106% | viability, T/C (second compound 1 µM, first compound 0.949 µM) 112% | viability, T/C (second compound 1 µM, first compound 3 µM) 144% | viability, T/C (second compound 3.16 µM, first compound 0.00949 µM) 118% | viability, T/C (second compound 3.16 µM, first compound 0.03 µM) 95.2% | viability, T/C (second compound 3.16 µM, first compound 0.0949 µM) 88.3% | viability, T/C (second compound 3.16 µM, first compound 0.3 µM) 101% | viability, T/C (second compound 3.16 µM, first compound 0.949 µM) 98.8% | viability, T/C (second compound 3.16 µM, first compound 3 µM) 144% | viability, T/C (second compound 10 µM, first compound 0.00949 µM) 113% | viability, T/C (second compound 10 µM, first compound 0.03 µM) 104% | viability, T/C (second compound 10 µM, first compound 0.0949 µM) 106% | viability, T/C (second compound 10 µM, first compound 0.3 µM) 86.7% | viability, T/C (second compound 10 µM, first compound 0.949 µM) 132% | viability, T/C (second compound 10 µM, first compound 3 µM) 146%
